Counter-ions that a name gives are not always drawn.
What was measured:
[1] = target: T1, recombinant human adrenergic beta 1 receptors (Homo sapiens, UniProt P08588); assay: Adrenergic β1 selectivity binding assay ([125I]-Iodocyanopindolol); details: inhibition of [125I]-Iodocyanopindolol binding, human β1 membranes; read-out: β1 bind p IC50 (converted)
T1 construct: purchased Euroscreen
Experimental: Membranes containing recombinant human adrenergic beta 1 receptors were obtained from Euroscreen. These were diluted in Assay Buffer (50 mM HEPES, 1 mM EDTA, 120 mM NaCl, 0.1% gelatin, pH 7.4) to provide a final concentration of membranes that gave a clear window between maximum and minimum specific binding.
(§1) Assays were performed in U-bottomed 96-well polypropylene plates. 10 μL [^125I]-Iodocyanopindolol (0.036 nM final concentration) and 10 μL of test compound (10× final concentration) were added to each test well. For each assay plate 8 replicates were obtained for [^125I]-Iodocyanopindolol binding in the presence of 10 μl vehicle (10% (v/v) DMSO in Assay Buffer; defining maximum binding) or 10 μl Propranolol (10 μM final concentration; defining non-specific binding (NSB)). Membranes were then added to achieve a final volume of 100 μL. The plates were incubated for 2 h at room temperature and then filtered onto PEI coated GF/B filter plates, pre-soaked for 1 h in Assay Buffer, using a 96-well plate Tomtec cell harvester. Five washes with 250 μL wash buffer (50 mM HEPES, 1 mM EDTA, 120 mM NaCl, pH 7.4) were performed at 4° C. to remove unbound radioactivity. The plates were dried then sealed from underneath using Packard plate sealers and MicroScint-O (50 μl) was added to each well. The plates were sealed (TopSeal A) and filter-bound radioactivity was measured with a scintillation counter (TopCount, Packard BioScience) using a 3-minute counting protocol.
(§2) Total specific binding (B0) was determined by subtracting the mean NSB from the mean maximum binding. NSB values were also subtracted from values from all other wells. […] Data was fitted to a four parameter logistic equation to determine the compound potency, which was expressed as pIC50 (negative log molar concentration inducing 50% inhibition of [^125I]-Iodocyanopindolol binding).

[2] = target: T2, recombinant human α1D receptor (Homo sapiens, UniProt P25100); assay: Adrenergic α1D selectivity binding assay ([3H]-prazosin); details: inhibition of [3H]-prazosin binding, HEK293 membranes, read-out: α1 bind pIC50 (converted)
T2 construct: expressed in transfected cells; host or cells: HEK293
T2 sequence (P25100 1-572): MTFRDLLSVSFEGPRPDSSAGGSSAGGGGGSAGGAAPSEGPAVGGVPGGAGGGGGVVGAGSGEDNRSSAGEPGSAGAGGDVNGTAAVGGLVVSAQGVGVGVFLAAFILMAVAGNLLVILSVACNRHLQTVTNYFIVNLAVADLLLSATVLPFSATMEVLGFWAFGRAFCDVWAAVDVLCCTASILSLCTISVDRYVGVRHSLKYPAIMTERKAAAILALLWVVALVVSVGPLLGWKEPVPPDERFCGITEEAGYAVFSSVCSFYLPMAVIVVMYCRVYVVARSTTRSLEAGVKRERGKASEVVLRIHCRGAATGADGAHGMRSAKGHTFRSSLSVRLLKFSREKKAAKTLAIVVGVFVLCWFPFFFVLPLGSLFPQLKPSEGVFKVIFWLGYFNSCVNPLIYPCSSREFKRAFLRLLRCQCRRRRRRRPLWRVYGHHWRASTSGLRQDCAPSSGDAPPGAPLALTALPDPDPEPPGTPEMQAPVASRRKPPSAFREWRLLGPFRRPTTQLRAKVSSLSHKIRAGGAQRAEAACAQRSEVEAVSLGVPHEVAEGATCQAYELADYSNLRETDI
Experimental: Membranes were prepared from human embryonic kidney 293 (HEK293) cells expressing recombinant human α1D receptor. These were diluted in Assay Buffer (50 mM HEPES, 1 mM EDTA, pH 7.4) to provide a final concentration of membranes that gave a clear window between maximum and minimum specific binding.
as §1, with “10 μl [^3H]-prazosin (0.3” for “10 μL [^125I]-Iodocyanopindolol (0.036”, “10 μl” for “10 μL”, “for [^3H]-prazosin” for “for [^125I]-Iodocyanopindolol”, “10 μL BMY7378” for “10 μl Propranolol”, “250 μl” for “250 μL”, “EDTA,” for “EDTA, 120 mM NaCl,”
as §2, with “[^3H]-prazosin” for “[^125I]-Iodocyanopindolol”

T1 sequence (P08588 whole entry): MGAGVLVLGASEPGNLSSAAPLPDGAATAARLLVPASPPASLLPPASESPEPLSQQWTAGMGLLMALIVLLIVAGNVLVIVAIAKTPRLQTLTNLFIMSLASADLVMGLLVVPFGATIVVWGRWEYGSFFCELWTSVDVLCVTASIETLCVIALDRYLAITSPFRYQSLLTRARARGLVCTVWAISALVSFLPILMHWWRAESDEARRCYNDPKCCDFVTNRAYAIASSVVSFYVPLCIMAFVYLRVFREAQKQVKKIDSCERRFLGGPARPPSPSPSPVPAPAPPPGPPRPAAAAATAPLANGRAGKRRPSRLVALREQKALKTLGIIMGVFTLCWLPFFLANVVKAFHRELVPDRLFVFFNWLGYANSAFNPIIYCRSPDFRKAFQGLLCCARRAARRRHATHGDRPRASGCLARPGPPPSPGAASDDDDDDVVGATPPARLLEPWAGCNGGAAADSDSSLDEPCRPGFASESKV

SMILES	IC50 [1]	IC50 [2]
CCn1cc(-c2cccc(CCOCCC(=O)N(CCNCCc3ccc(O)c4c3OCC(=O)N4)C3CCCCC3)c2)nn1 [Example 04, N-Cyclohexyl-3-(3-(1-ethyl-1H-1,2,3-triazol-4-yl)phenethoxy)-N-(2-(2-(5-hydroxy-3-oxo-3,4-dihydro-2H-benzo[b][1,4]oxazin-8-yl)ethylamino)ethyl)propanamide Trifluoroacetic Acid Salt]	> 10000 nM	2000 nM
Cn1cc(-c2cccc(CCOCCC(=O)N(CCNCCc3ccc(O)c4c3OCC(=O)N4)C3CCCCC3)c2)nn1 [Example 05, N-Cyclohexyl-N-(2-(2-(5-hydroxy-3-oxo-3,4-dihydro-2H-benzo[b][1,4]oxazin-8-yl)ethylamino)ethyl)-3-(3-(1-methyl-1H-1,2,3-triazol-4-yl)phenethoxy)propanamide Trifluoroacetic Acid Salt]	> 7940 nM	2000 nM
Cn1nnnc1-c1cccc(CCOCCC(=O)N(CCNCCc2ccc(O)c3c2OCC(=O)N3)C2CCCCC2)c1 [Example 08, N-Cyclohexyl-N-(2-(2-(5-hydroxy-3-oxo-3,4-dihydro-2H-benzo[b][1,4]oxazin-8-yl)ethylamino)ethyl)-3-(3-(1-methyl-1H-tetrazol-5-yl)phenethoxy)propanamide Trifluoroacetic Acid Salt]	> 10000 nM	3980 nM
CC(C)[C@@H](C)N(CCNCCc1ccc(O)c2c1OCC(=O)N2)C(=O)CCOCCc1cccc(-c2cnn(C)c2)c1 [Example 09, (R)—N-(2-(2-(5-Hydroxy-3-oxo-3,4-dihydro-2H-benzo[b][1,4]oxazin-8-yl)ethylamino)ethyl)-3-(3-(1-methyl-1H-pyrazol-4-yl)phenethoxy)-N-(3-methylbutan-2-yl)propanamide Trifluoroacetic Acid Salt]	> 10000 nM	1000 nM
O=C1COc2c(CCNCCN(C(=O)CCOCCc3cccc(-c4cnco4)c3)C3CCCCC3)ccc(O)c2N1 [Example 10, N-Cyclohexyl-N-(2-(2-(5-hydroxy-3-oxo-3,4-dihydro-2H-benzo[b][1,4]oxazin-8-yl)ethylamino)ethyl)-3-(3-(oxazol-5-yl)phenethoxy)propanamide Trifluoroacetic Acid Salt]	6310 nM	316 nM
Cn1cc(-c2cc(CCOCCC(=O)N(CCNCCc3ccc(O)c4c3OCC(=O)N4)C3CCCCC3)ccc2F)cn1 [Example 13, N-Cyclohexyl-3-(4-fluoro-3-(1-methyl-1H-pyrazol-4-yl)phenethoxy)-N-(2-(2-(5-hydroxy-3-oxo-3,4-dihydro-2H-benzo[b][1,4]oxazin-8-yl)ethylamino)ethyl)propanamide Trifluoroacetic Acid Salt]	6310 nM	631 nM
Cn1cc(-c2cc(F)cc(CCOCCC(=O)N(CCNCCc3ccc(O)c4c3OCC(=O)N4)C3CCCCC3)c2)cn1 [Example 17, N-Cyclohexyl-3-(3-fluoro-5-(1-methyl-1H-pyrazol-4-yl)phenethoxy)-N-(2-(2-(5-hydroxy-3-oxo-3,4-dihydro-2H-benzo[b][1,4]oxazin-8-yl)ethylamino)ethyl)propanamide Trifluoroacetic Acid Salt]	5010 nM	501 nM

Other lines, results leading:

IC50 [1]	IC50 [2]	SMILES
> 10000 nM	2000 nM	Cn1nccc1-c1cccc(CCOCCC(=O)N(CCNCCc2ccc(O)c3c2OCC(=O)N3)C2CCCCC2)c1 [Example 03, N-Cyclohexyl-N-(2-(2-(5-hydroxy-3-oxo-3,4-dihydro-2H-benzo[b][1,4]oxazin-8-yl)ethylamino)ethyl)-3-(3-(1-methyl-1H-pyrazol-5-yl)phenethoxy)propanamide Trifluoroacetic Acid Salt]
> 10000 nM	1000 nM	Cn1nnc(-c2cccc(CCOCCC(=O)N(CCNCCc3ccc(O)c4c3OCC(=O)N4)C3CCCCC3)c2)n1 [Example 07, N-Cyclohexyl-N-(2-(2-(5-hydroxy-3-oxo-3,4-dihydro-2H-benzo[b][1,4]oxazin-8-yl)ethylamino)ethyl)-3-(3-(2-methyl-2H-tetrazol-5-yl)phenethoxy)propanamide Trifluoroacetic Acid Salt]
> 10000 nM	1580 nM	CC(C)n1cc(-c2cccc(CCOCCC(=O)N(CCNCCc3ccc(O)c4c3OCC(=O)N4)C3CCCCC3)c2)nn1 [Example 12, N-Cyclohexyl-N-(2-(2-(5-hydroxy-3-oxo-3,4-dihydro-2H-benzo[b][1,4]oxazin-8-yl)ethylamino)ethyl)-3-(3-(1-isopropyl-1H-1,2,3-triazol-4-yl)phenethoxy)propanamide Trifluoroacetic Acid Salt]
> 10000 nM	1000 nM	O=C1COc2c(CCNCCN(C(=O)CCOCCc3cccc(-c4c[nH]nn4)c3)C3CCCCC3)ccc(O)c2N1 [Example 14, 3-(3-(1H-1,2,3-Triazol-4-yl)phenethoxy)-N-cyclohexyl-N-(2-(2-(5-hydroxy-3-oxo-3,4-dihydro-2H-benzo[b][1,4]oxazin-8-yl)ethylamino)ethyl)propanamide Trifluoroacetic Acid Salt]
> 10000 nM	> 10000 nM	O=C1COc2c(CCNCCN(C(=O)CCOCCc3cccc(-c4nn[nH]n4)c3)C3CCCCC3)ccc(O)c2N1 [Example 15, 3-(3-(2H-Tetrazol-5-yl)phenethoxy)-N-cyclohexyl-N-(2-(2-(5-hydroxy-3-oxo-3,4-dihydro-2H-benzo[b][1,4]oxazin-8-yl)ethylamino)ethyl)propanamide Trifluoroacetic Acid Salt]
6310 nM	501 nM	Cn1cc(-c2cccc(CCOCCC(=O)N(CCNCCc3ccc(O)c4c3OCC(=O)N4)C3CCCCC3)c2F)cn1 [Example 16, N-Cyclohexyl-3-(2-fluoro-3-(1-methyl-1H-pyrazol-4-yl)phenethoxy)-N-(2-(2-(5-hydroxy-3-oxo-3,4-dihydro-2H-benzo[b][1,4]oxazin-8-yl)ethylamino)ethyl)propanamide Trifluoroacetic Acid Salt]
3980 nM	1000 nM	O=C1COc2c(CCNCCN(C(=O)CCOCCc3cccc(-c4cnn(CC5CC5)c4)c3)C3CCCC3)ccc(O)c2N1 [Example 19, N-Cyclopentyl-3-(3-(1-(cyclopropylmethyl)-1H-pyrazol-4-yl)phenethoxy)-N-(2-(2-(5-hydroxy-3-oxo-3,4-dihydro-2H -benzo[b][1,4]oxazin-8-yl)ethylamino)ethyl)propanamide Trifluoroacetic Acid Salt]
6310 nM	794 nM	CCC[C@@H](C)N(CCNCCc1ccc(O)c2c1OCC(=O)N2)C(=O)CCOCCc1cccc(-c2cnn(C(C)C)c2)c1 [Example 21, (R)—N-(2-(2-(5-Hydroxy-3-oxo-3,4-dihydro-2H-benzo[b][1,4]oxazin-8-yl)ethylamino)ethyl)-3-(3-(1-isopropyl-1H-pyrazol-4-yl)phenethoxy)-N-(pentan-2-yl)propanamide Trifluoroacetic Acid Salt]
